Laboratory results from patent US11524942B2, “Metabolites of [3-(4-{2-butyl-1-[4-(4-chloro-phenoxy)-phenyl]-1H-imidazol-4 yl}-phenoxy)-propyl]-diethyl-amine” (vTv Therapeutics LLC, priority 2018, dated 2022).

biological target: human sRAGE (the soluble extracellular domain of the human receptor for advanced glycation endproducts) (Homo sapiens (Human), UniProt Q15109); assay: Microscale thermophoresis binding affinity to recombinant human sRAGE; conditions: 25° C., pH 7.5
Description: Around 5 nM sRAGE was subsequently added to compounds at concentrations from 600 nM to 20 pM and incubated for 5 minutes at 25° C. in buffer containing 25 mM Hepes (pH 7.5), 5 mM CaCl2), 5 mM MgCl2, 50 mM NaCl, 0.05% Tween20 and 1% DMSO before proceeding to microscale thermophoresis.
The raw thermophoresis data and average Kds were generated according to manufacturer's protocol using the Microscale Thermophoresis System analysis software.

Sequence of human sRAGE (the soluble extracellular domain of the human receptor for advanced glycation endproducts) (Q15109 23-342): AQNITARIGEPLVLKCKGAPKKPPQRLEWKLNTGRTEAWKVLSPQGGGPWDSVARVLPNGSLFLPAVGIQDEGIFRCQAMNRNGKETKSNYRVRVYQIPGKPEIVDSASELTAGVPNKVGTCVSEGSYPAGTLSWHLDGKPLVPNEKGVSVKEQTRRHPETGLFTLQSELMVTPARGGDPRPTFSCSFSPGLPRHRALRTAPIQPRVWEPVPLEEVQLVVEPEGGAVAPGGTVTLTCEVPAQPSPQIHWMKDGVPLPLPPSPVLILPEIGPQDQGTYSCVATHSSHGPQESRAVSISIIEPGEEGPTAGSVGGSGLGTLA

Structure (SMILES) | Kd
CCCCc1nc(-c2ccc(OCCC(=O)O)cc2)cn1-c1ccc(Oc2ccc(Cl)cc2)cc1 [Metabolite M1, 3-(4-{2-Butyl-1-[4-(4-chloro-phenoxy)-phenyl]-1H-imidazol-4-yl}-phenoxy)-propionic acid] | 0.219 µM
CCCCc1nc(-c2ccc(O)cc2)cn1-c1ccc(Oc2ccc(Cl)cc2)cc1 [Metabolite M3, 4-{2-butyl-1-[4-(4-chloro-phenoxy)-phenyl]-1H-imidazol-4-yl}-phenol] | 0.257 µM

Compounds with a lower Kd, results first:

Kd | Structure (SMILES)
0.0097 µM | CCCCc1nc(-c2ccc(OCCCN(CC)CC)cc2)cn1-c1ccc(Oc2ccc(Cl)cc2O)cc1 [Metabolite M5, 2-[4-[2-butyl-4-[4-[3-(diethylamino)propoxy]phenyl]imidazol-1-yl]phenoxy]-5-chloro-phenol]
0.0098 µM | CCCCc1nc(-c2ccc(OCCCN(CC)CC)cc2)cn1-c1ccc(Oc2ccc(Cl)c(O)c2)cc1 [Metabolite M6, 5-[4-[2-butyl-4-[4-[3-(diethylamino)propoxy]phenyl]imidazol-1-yl]phenoxy]-2-chloro-phenol]
0.0998 µM | CCCCc1nc(-c2ccc(OCCCO)cc2)cn1-c1ccc(Oc2ccc(Cl)cc2)cc1 [Metabolite M7, 3-(4-{2-Butyl-1-[4-(4-chloro-phenoxy)-phenyl]-1H-imidazol-4-yl}-phenoxy)-propan-1-ol]
